Columns and labels:
[1] = molecular target: T1, human PD-L1 protein (amino acids 18-134) (Homo sapiens, UniProt Q9NZQ7); assay: 1H NMR binding assay; details: ligand/protein 1:1, 0.2 mM PD-L1, 300 K
T1 construct: human PD-L1 protein (amino acids 18-134); made in house; host or cells: E. coli BL21 (pET-21b)
Procedure: NMR spectra were recorded in 10 mM Tris, pH 8.0 20 mM NaCl containing 10% (v/v) of D2O added to the samples to provide the lock signal. Water suppression was carried out using the WATERGATE sequence. All the spectra were recorded at 300 K using a Bruker AVANCE 600 MHz spectrometer (Bruker, Billerica, MA, USA) with the cryoplatform.
The spectra were recorded at the ligand/protein ratio of 1:1 unless stated otherwise. The samples were prepared by adding small amounts of a 50 mM ligand stock solution in DMSO to the protein solution (0.20 mL) of PD-L1 fragment at a concentration of 0.2 mM. […] Spectra were visualized using TopSpin 4.0.2.

PD-1/PD-L1 complex = molecular target: T2, PD-1/PD-L1 complex (Homo sapiens, UniProt Q9NZQ7); assay: HTRF assay of PD-1/PD-L1 complex inhibition (cis-bio kit); type: binding; details: 1 h, scouting mode, 5 nM PD-L1, 50 nM PD-1, read-out: HTRF [%] (percentage of dissociated PD-1/PD-L1 complex)
T2 construct: purchased cis-bio
T2 sequence (Q9NZQ7 19-238 limits assumed, one chain of several): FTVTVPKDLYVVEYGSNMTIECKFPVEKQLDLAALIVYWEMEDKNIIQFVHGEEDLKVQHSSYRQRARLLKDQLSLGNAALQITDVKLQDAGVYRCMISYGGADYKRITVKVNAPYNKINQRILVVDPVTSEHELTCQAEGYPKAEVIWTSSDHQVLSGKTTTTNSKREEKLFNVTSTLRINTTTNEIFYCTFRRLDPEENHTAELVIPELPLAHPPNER
Procedure: All synthesized molecules were tested in the homogeneous time-resolved fluorescence (HTRF) assay to assess their activity as inhibitors of the PD-1/PD-L1 complex (Table 1, Table 2 and Table 3). This evaluation was conducted in scouting modes, employing concentrations of 5 μM and 0.5 μM. Based on the obtained measurements, the IC50 values were estimated for each tested compound.
The certified cis-bio assay kit was used to perform the HTRF assay. Following the standard protocol, the measurement was carried out at a 20 µL final volume with a 5 nM concentration of PD-L1 and a 50 nM concentration of PD-1 in the final formulation. […] The plate was incubated for 1 h and then read on an HTRF-certified Tecan Spark 20M microplate reader. Output data were subjected to background subtraction on negative control (without PD-1) and normalization in correlation to the positive control (without inhibitor) and were then averaged. The resulting data points were then fitted with Hill’s equation to generate IC50 using Mathematica 12. […]

T1 sequence (Q9NZQ7 18-134): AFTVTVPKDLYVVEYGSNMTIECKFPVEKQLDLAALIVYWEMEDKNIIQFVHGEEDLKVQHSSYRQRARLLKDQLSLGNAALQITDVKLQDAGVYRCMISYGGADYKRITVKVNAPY

With `COc1cccc(CNCCNC(C)=O)c1OCc1cccc(-c2cccc(-c3cccc(COc4c(CNCCNC(C)=O)cccc4OC)c3)c2C)c1` [Compound 8b, N,N’-(((((((2′-methyl-[1,1′:3′,1′′-terphenyl]-3,3′′-diyl)bis(methylene))bis(oxy))bis(3-methoxy-2,1-phenylene))bis(methylene))bis(azanediyl))bis(ethane-2,1-diyl))diacetamide] as the compound, how does the “Binding to PD-L1 by 1H NMR (broadening of PD-L1 proton signals)” value [1] read?
The value was “affinity of the test compounds for the PD-L1 protein is confirmed”.

What about the inhibition at 0.5 µM (PD-1/PD-L1 complex; inhibitor 0.5 µM) of the same compound?
The inhibition at 0.5 µM was 88.9 ± 3.8%.

What about the inhibition at 5 µM (PD-1/PD-L1 complex; inhibitor 5 µM) of the same compound?
The inhibition at 5 µM was 73.6 ± 5.3%.
